Measured values from US20230265151A1, “GIP/GLP1 CO-AGONIST COMPOUNDS” (priority 2020, published 2023).
Like-named read-outs stand apart in the source and are kept apart here.

What was measured:
Type in all cases: cell-based
[1] = target: hGLP-1R (Homo sapiens, UniProt P43220); test: Functional cAMP formation (HTRF) in HEK-293 clonal cells expressing hGLP-1R, 0.1% bovine casein, without or with 1.0% human serum albumin; design: expressed in transfected cells; conditions: for EC50: geometric mean
Chain of hGLP-1R (P43220 24-463): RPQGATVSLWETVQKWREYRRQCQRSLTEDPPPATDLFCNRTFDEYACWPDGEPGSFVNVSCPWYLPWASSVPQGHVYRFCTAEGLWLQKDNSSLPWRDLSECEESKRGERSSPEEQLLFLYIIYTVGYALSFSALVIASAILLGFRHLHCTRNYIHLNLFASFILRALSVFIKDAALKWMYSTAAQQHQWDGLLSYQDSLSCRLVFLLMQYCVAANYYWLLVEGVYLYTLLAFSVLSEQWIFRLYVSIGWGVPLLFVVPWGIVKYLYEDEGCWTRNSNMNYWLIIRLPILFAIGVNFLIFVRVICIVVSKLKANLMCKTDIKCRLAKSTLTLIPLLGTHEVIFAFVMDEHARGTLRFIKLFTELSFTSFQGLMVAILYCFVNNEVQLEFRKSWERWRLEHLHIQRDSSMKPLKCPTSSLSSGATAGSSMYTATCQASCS
How it was run: (§1)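 Readings of the HTRF 665/620 nm ratio, which falls as cAMP rises, were converted to nM cAMP using a standard curve after 30 min peptide exposure at 37° C.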

[2] = target: T1, hGCGR (Homo sapiens, UniProt P47871); test: Functional cAMP formation (HTRF) in HEK-293 clonal cells expressing hGCGR, 0.1% bovine casein, without or with 1.0% human serum albumin; conditions: geometric mean
T1 construct: expressed in transfected cells
T1 sequence (P47871 26-477): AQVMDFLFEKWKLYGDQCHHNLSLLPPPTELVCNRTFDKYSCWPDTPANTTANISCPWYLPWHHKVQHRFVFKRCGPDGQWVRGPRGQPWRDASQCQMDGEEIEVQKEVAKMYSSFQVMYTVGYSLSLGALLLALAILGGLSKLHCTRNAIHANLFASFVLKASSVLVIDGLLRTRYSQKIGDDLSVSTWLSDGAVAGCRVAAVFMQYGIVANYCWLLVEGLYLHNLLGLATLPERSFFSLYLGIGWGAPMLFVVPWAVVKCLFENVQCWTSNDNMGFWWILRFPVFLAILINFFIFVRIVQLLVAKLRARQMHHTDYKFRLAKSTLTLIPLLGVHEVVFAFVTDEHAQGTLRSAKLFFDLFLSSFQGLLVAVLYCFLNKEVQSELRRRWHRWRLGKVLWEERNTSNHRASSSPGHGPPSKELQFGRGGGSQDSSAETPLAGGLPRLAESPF
How it was run: as §1

[3] = target: T2, hGIPR (Homo sapiens, UniProt P48546); test: Functional cAMP formation (HTRF) in HEK-293 clonal cells expressing hGIPR, 0.1% bovine casein, without or with 1.0% human serum albumin; conditions: 37° C.
T2 construct: expressed in transfected cells
T2 sequence (P48546 22-466): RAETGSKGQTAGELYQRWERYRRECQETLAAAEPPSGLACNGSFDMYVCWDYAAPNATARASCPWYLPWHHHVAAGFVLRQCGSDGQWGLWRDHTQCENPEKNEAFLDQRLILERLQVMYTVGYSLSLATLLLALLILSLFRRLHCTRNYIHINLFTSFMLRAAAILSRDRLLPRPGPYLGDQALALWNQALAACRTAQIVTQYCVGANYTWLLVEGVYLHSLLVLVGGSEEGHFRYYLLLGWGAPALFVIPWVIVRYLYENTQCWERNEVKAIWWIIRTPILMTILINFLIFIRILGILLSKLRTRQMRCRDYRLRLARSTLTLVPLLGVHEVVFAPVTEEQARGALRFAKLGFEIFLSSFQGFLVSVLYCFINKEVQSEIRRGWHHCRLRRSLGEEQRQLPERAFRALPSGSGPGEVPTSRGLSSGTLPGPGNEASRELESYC
How it was run: as §1

[4] = cAMP, incubated at 37° C., 0.1% bovine casein (no human serum albumin), read-out: hGLP-1R EC50, nM (SEM, n)
[5] = cAMP, incubated at 37° C., 0.1% bovine casein (no human serum albumin), read-out: hGCGR EC50, nM (SEM, n)
[6] = HEK293, percent of maximal response to GIP(1-42)NH2, 0.1% bovine casein, arithmetic mean, read-out: hGIPR Emax, % ± SEM
[7] = HEK293, read-out: hGLP-1R Emax, % ± SEM, percent of maximal response to GLP-1(7-36)NH2, 37° C., 0.1% bovine casein, arithmetic mean
[8] = hGCGR EC50, nM (SEM, n), cAMP, incubated at 37° C., 0.1% bovine casein (no human serum albumin)
[9] = HEK293, read-out: hGIPR Emax, % ± SEM, percent of maximal response to GIP(1-42)NH2, 0.1% bovine casein, arithmetic mean

| Compound | EC50 [1, 4] [nM] | EC50 [2, 5] [nM] | Emax [3, 6] [%] | Emax [1, 7] [%] | EC50 [2, 8] [nM] | Emax [3, 9] [%] | other results |
| --- | --- | --- | --- | --- | --- | --- | --- |
| CC[C@H](C)[C@H](NC(=O)[C@H](CC(C)C)NC(=O)[C@](C)(Cc1ccc(O)cc1)NC(=O)[C@@H](CCC(=O)O)NC(=O)[C@@H](NC(=O)[C@H](Cc1ccccc1)NC(=O)[C@H](CCC(=O)O)NC(=O)C(C)(C)NC(=O)[C@H](CCC(N)=O)NC(=O)[C@H](C)NC(=O)[C@H](CCCCNC(=O)[C@@H](N)CCCCNC(=O)[C@@H](N)CCCCNC(=O)CC[C@H](NC(=O)CCCCCCCCCCCCC(=O)O)C(=O)O)NC(=O)[C@H](CCCN)NC(=O)[C@H](CC(=O)O)NC(=O)[C@H](CC(C)C)NC(=O)[C@](C)(CC(C)C)NC(=O)[C@@H](NC(=O)C(C)(C)NC(=O)[C@@H](NC(=O)[C@H](CC(=O)O)NC(=O)[C@H](CO)NC(=O)[C@@H](NC(=O)[C@](C)(Cc1ccccc1F)NC(=O)[C@@H](NC(=O)CNC(=O)[C@H](CCC(=O)O)NC(=O)C(C)(C)NC(=O)[C@@H](N)Cc1ccc(O)cc1)[C@@H](C)O)[C@@H](C)O)C(C)C)[C@@H](C)CC)[C@@H](C)CC)C(=O)N[C@@H](CCC(=O)O)C(=O)NCC(=O)NCC(=O)N[C@@H](CCCCNC(=O)[C@@H](N)CCCCNC(=O)[C@@H](N)CCCCNC(=O)CC[C@H](NC(=O)CCCCCCCCCCCCC(=O)O)C(=O)O)C(=O)N[C@@H](CO)C(=O)N[C@@H](CO)C(=O)NCC(=O)N[C@@H](C)C(=O)N1CCC[C@H]1C(=O)N1CCC[C@H]1C(=O)N1CCC[C@H]1C(=O)N[C@@H](CO)C(N)=O [Example 165] | 0.291 | > 9950 | 96.1 | – | – | – | Emax ([1]; HEK293, percent of maximal response to GLP-1(7-36)NH2, 37° C., 0.1% bovine casein, arithmetic mean, read-out: hGLP-1R Emax, % ± SEM): 94.3% |
| CC[C@H](C)[C@H](NC(=O)[C@H](CC(C)C)NC(=O)[C@](C)(Cc1ccc(O)cc1)NC(=O)[C@H](CCCCNC(=O)COCCOCCNC(=O)COCCOCCNC(=O)[C@@H](N)CCCCNC(=O)CCCCCCCCCCCCC(=O)O)NC(=O)[C@@H](NC(=O)[C@H](Cc1ccccc1)NC(=O)[C@H](CCC(=O)O)NC(=O)C(C)(C)NC(=O)[C@H](CCC(N)=O)NC(=O)[C@H](C)NC(=O)[C@H](CCCCNC(=O)COCCOCCNC(=O)COCCOCCNC(=O)[C@@H](N)CCCCNC(=O)CCCCCCCCCCCCC(=O)O)NC(=O)[C@H](CCCN)NC(=O)[C@H](CC(=O)O)NC(=O)[C@H](CC(C)C)NC(=O)[C@](C)(CC(C)C)NC(=O)[C@@H](NC(=O)C(C)(C)NC(=O)[C@@H](NC(=O)[C@H](CC(=O)O)NC(=O)[C@H](CO)NC(=O)[C@@H](NC(=O)[C@](C)(Cc1ccccc1F)NC(=O)[C@@H](NC(=O)CNC(=O)[C@H](CCC(=O)O)NC(=O)C(C)(C)NC(=O)[C@@H](N)Cc1ccc(O)cc1)[C@@H](C)O)[C@@H](C)O)C(C)C)[C@@H](C)CC)[C@@H](C)CC)C(=O)N[C@@H](CCC(=O)O)C(=O)NCC(=O)NCC(=O)N1CCC[C@H]1C(=O)N[C@@H](CO)C(=O)N[C@@H](CO)C(=O)NCC(=O)N[C@@H](C)C(=O)N1CCC[C@H]1C(=O)N1CCC[C@H]1C(=O)N1CCC[C@H]1C(=O)N[C@@H](CO)C(N)=O [Example 166] | – | – | – | 90.3 | > 9950 | 97 | EC50 ([1]; hGLP-1R EC50, nM (SEM, n), cAMP, incubated at 37° C., 0.1% bovine casein (no human serum albumin)): 0.192 nM |
| CC[C@H](C)[C@H](NC(=O)[C@H](CC(C)C)NC(=O)[C@](C)(Cc1ccc(O)cc1)NC(=O)[C@H](CCCCNC(=O)[C@@H](N)CCCCNC(=O)[C@@H](N)CCCCNC(=O)CC[C@H](NC(=O)CCCCCCCCCCCCC(=O)O)C(=O)O)NC(=O)[C@@H](NC(=O)[C@H](Cc1ccccc1)NC(=O)[C@H](CCC(=O)O)NC(=O)C(C)(C)NC(=O)[C@H](CCC(N)=O)NC(=O)[C@H](C)NC(=O)[C@H](CCCCNC(=O)[C@@H](N)CCCCNC(=O)[C@@H](N)CCCCNC(=O)CC[C@H](NC(=O)CCCCCCCCCCCCC(=O)O)C(=O)O)NC(=O)[C@H](CCCN)NC(=O)[C@H](CC(=O)O)NC(=O)[C@H](CC(C)C)NC(=O)[C@](C)(CC(C)C)NC(=O)[C@@H](NC(=O)C(C)(C)NC(=O)[C@@H](NC(=O)[C@H](CC(=O)O)NC(=O)[C@H](CO)NC(=O)[C@@H](NC(=O)[C@](C)(Cc1ccccc1F)NC(=O)[C@@H](NC(=O)CNC(=O)[C@H](CCC(=O)O)NC(=O)C(C)(C)NC(=O)[C@@H](N)Cc1ccc(O)cc1)[C@@H](C)O)[C@@H](C)O)C(C)C)[C@@H](C)CC)[C@@H](C)CC)C(=O)N[C@@H](CCC(=O)O)C(=O)NCC(=O)NCC(=O)N1CCC[C@H]1C(=O)N[C@@H](CO)C(=O)N[C@@H](CO)C(=O)NCC(=O)N[C@@H](C)C(=O)N1CCC[C@H]1C(=O)N1CCC[C@H]1C(=O)N1CCC[C@H]1C(=O)N[C@@H](CO)C(N)=O [Example 168] | – | – | – | 93.3 | > 9950 | 93 | – |
| CC[C@H](C)[C@H](NC(=O)[C@H](CC(C)C)NC(=O)[C@](C)(Cc1ccc(O)cc1)NC(=O)[C@@H](CCC(=O)O)NC(=O)[C@@H](NC(=O)[C@H](Cc1ccccc1)NC(=O)[C@H](CCC(=O)O)NC(=O)C1(NC(=O)[C@H](CCC(N)=O)NC(=O)[C@H](C)NC(=O)[C@H](CCCCNC(=O)COCCOCCNC(=O)COCCOCCNC(=O)CC[C@H](NC(=O)CCCCCCCCCCCCC(=O)O)C(=O)O)NC(=O)[C@H](CCCN)NC(=O)[C@H](CC(=O)O)NC(=O)[C@H](CC(C)C)NC(=O)[C@](C)(CC(C)C)NC(=O)[C@@H](NC(=O)[C@H](CO)NC(=O)[C@H](Cc2ccncc2)NC(=O)[C@H](CC(=O)O)NC(=O)[C@H](CO)NC(=O)[C@@H](NC(=O)[C@](C)(Cc2ccccc2F)NC(=O)[C@@H](NC(=O)CNC(=O)[C@H](CCC(=O)O)NC(=O)C(C)(C)NC(=O)[C@@H](N)Cc2ccc(O)cc2)[C@@H](C)O)[C@@H](C)O)[C@@H](C)CC)CCCC1)[C@@H](C)CC)C(=O)N[C@@H](CCC(=O)O)C(=O)NCC(=O)NCC(=O)N[C@@H](CCCCNC(=O)COCCOCCNC(=O)COCCOCCNC(=O)CC[C@H](NC(=O)CCCCCCCCCCCCC(=O)O)C(=O)O)C(=O)N[C@@H](CO)C(=O)N[C@@H](CO)C(=O)NCC(=O)N[C@@H](C)C(=O)N1CCC[C@H]1C(=O)N1CCC[C@H]1C(=O)N1CCC[C@H]1C(=O)N[C@@H](CO)C(N)=O [Example 170] | 1.03 | > 9950 | 93.9 | – | – | – | – |
| CCCCCCCCCCCC(=O)N[C@@H](CCC(=O)NCCOCCOCC(=O)NCCOCCOCC(=O)NCCCC[C@H](NC(=O)CNC(=O)CNC(=O)[C@H](CCC(=O)O)NC(=O)[C@@H](NC(=O)[C@H](CC(C)C)NC(=O)[C@](C)(Cc1ccc(O)cc1)NC(=O)[C@@H](CCC(=O)O)NC(=O)[C@@H](NC(=O)[C@H](Cc1ccccc1)NC(=O)[C@H](CCC(=O)O)NC(=O)C(C)(C)NC(=O)[C@H](CCC(N)=O)NC(=O)[C@H](C)NC(=O)[C@H](CCCCNC(=O)COCCOCCNC(=O)COCCOCCNC(=O)CC[C@H](NC(=O)CCCCCCCCCCC)C(=O)O)NC(=O)[C@H](CCCN)NC(=O)[C@H](CC(=O)O)NC(=O)[C@H](CC(C)C)NC(=O)[C@](C)(CC(C)C)NC(=O)[C@@H](NC(=O)[C@H](CO)NC(=O)[C@H](Cc1ccncc1)NC(=O)[C@H](CC(=O)O)NC(=O)[C@H](CO)NC(=O)[C@@H](NC(=O)[C@](C)(Cc1ccccc1)NC(=O)[C@@H](NC(=O)CNC(=O)[C@H](CCC(=O)O)NC(=O)C(C)(C)NC(=O)[C@@H](N)Cc1ccc(O)cc1)[C@@H](C)O)[C@@H](C)O)[C@@H](C)CC)[C@@H](C)CC)[C@@H](C)CC)C(=O)N[C@@H](CO)C(=O)N[C@@H](CO)C(=O)NCC(=O)N[C@@H](C)C(=O)N1CCC[C@H]1C(=O)N1CCC[C@H]1C(=O)N1CCC[C@H]1C(=O)N[C@@H](CO)C(N)=O)C(=O)O [Example 172] | 0.141 | > 9950 | 89.9 ± 1.05 | – | – | – | EC50 ([1]; 0.1% bovine casein and 1.0% human serum albumin, 37° C., read-out: hGLP-1R EC50, nM (SEM, n)): 7.7 nM; Emax ([1]; HEK293, 0.1% bovine casein and 1.0% human serum albumin, 37° C., percent of maximal response to GLP-1(7-36)NH2, read-out: hGLP-1R Emax, % ± SEM): 112 ± 10.3%; EC50 ([2]; 0.1% bovine casein and 1.0% human serum albumin, 37° C., read-out: hGCGR EC50, nM (SEM, n)): > 9950 nM; EC50 ([3]; 0.1% bovine casein and 1.0% human serum albumin, geometric mean, read-out: hGIPR EC50, nM (SEM, n)): 0.385 nM; Emax ([3]; HEK293, 0.1% bovine casein and 1.0% human serum albumin, percent of maximal response to GIP(1-42)NH2, read-out: hGIPR Emax, % ± SEM): 80.1 ± 2.06% |
